#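 Where inhibition never reached the appropriate level, the endpoint shown equals the highest concentration tested. Otherwise, values were interpolated linearly from a five-concentration, 48-hour dose response in 96-well plates. TGI is the concentration that stops growth completely.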
# Legend:
# Experiment in all cases: NCI tumour cell line growth inhibition, 48 h
# MOLT-4 leukemia = system: MOLT-4 leukemia
# HOP-62 NSCLC = system: HOP-62 NSCLC
# K-562 leukemia = system: K-562 leukemia
# OVCAR-5 ovarian = system: OVCAR-5 ovarian
# OVCAR-4 ovarian = system: OVCAR-4 ovarian
# HT29 colon = system: HT29 colon
# MCF7 breast = system: MCF7 breast
# SK-MEL-28 melanoma = system: SK-MEL-28 melanoma
# SF-295 CNS = system: SF-295 CNS
# SNB-75 CNS = system: SNB-75 CNS
# MDA-N = system: MDA-N
# HCT-116 colon = system: HCT-116 colon
# PC-3 prostate = system: PC-3 prostate
# NCI-H226 lung = system: NCI-H226 lung
SMILES,TGI (MOLT-4 leukemia) [µM],TGI (HOP-62 NSCLC) [µM],TGI (K-562 leukemia) [µM],TGI (OVCAR-5 ovarian) [µM],TGI (OVCAR-4 ovarian) [µM],TGI (HT29 colon) [µM],TGI (MCF7 breast) [µM],TGI (SK-MEL-28 melanoma) [µM],TGI (SF-295 CNS) [µM],TGI (SNB-75 CNS) [µM],TGI (MDA-N) [µM],TGI (HCT-116 colon) [µM],TGI (PC-3 prostate) [µM],TGI (NCI-H226 lung) [µM]
O=C1c2cc3c(cc2CC12Cc1cc4c(cc1C2=O)CCC4)CCCC3 (stereo not drawn),> 100,> 100,> 100,> 100,> 100,> 100,> 100,> 100,> 100,> 100,> 100,> 100,> 100,
CC(C)=CCS(=O)c1ccccc1NC1=CC(=O)CC(C)(C)C1 (stereo not drawn),> 100,0.855,> 100,> 100,> 100,> 100,> 100,> 100,,> 100,> 100,> 100,> 100,> 100
COc1cccc(OC)c1/C=C1\OC(=O)c2cccc(OC)c21,> 100,56,> 100,> 100,> 100,> 100,> 100,> 100,> 28.2,17.9,3.32,> 100,> 100,> 29.5
Cc1ccc(S(=O)(=O)C2=Cc3ccc(C(F)(F)F)cc3C2(O)c2cccc(C(F)(F)F)c2)cc1 (stereo not drawn),> 22.6,18.8,6.34,5.07,4.05,5.14,4.86,3.75,6.87,13.9,5.88,3.03,8.03,4.26
O=C1NC(=O)C(c2c[nH]c3cc(Br)ccc23)=C1c1cn(C(c2ccccc2)(c2ccccc2)c2ccccc2)cn1,23.5,83.9,45.9,39,> 100,27.1,40.4,92.6,> 100,48.8,27.8,23.6,50.4,19.3
Cc1cccc2c1[C@]13OC(C)[C@]4(C)CC5OC(=O)[C@@]1(C)[C@@H]5[C@]34C(=O)O2 (stereo partly drawn),> 100,> 100,> 100,> 100,,> 100,> 100,> 100,> 100,> 100,> 100,> 100,> 100,> 100
N#Cc1c(-c2ccccc2)[nH]c2ccccc2c1=O,> 100,84.9,> 100,> 100,> 100,> 100,> 100,> 100,66.7,38.3,> 100,> 100,> 100,> 100
CC(=O)OC1CC2c3cccc4c3C(CC2N(C)C1=O)CN4C(=O)c1ccccc1 (stereo not drawn),> 100,77.4,> 100,> 100,92.3,49.9,62.9,77.1,69.5,,77.1,32.8,79.6,96.5

# — PubChem BioAssay (NCI)
